{"source": "patent US7553966B2", "about": "“Glucocorticoid mimetics, methods of making them, pharmaceutical compositions, and uses thereof” (Boehringer Ingelheim Pharmaceuticals, Inc., priority 2002, dated 2009)"}
{"target": "T1, human glucocorticoid receptor (GR) complex (Homo sapiens, UniProt P04150)", "T1 construct": "made in house; host or cells: insect expression system (baculovirus lysate)", "T1 sequence (P04150 1-777)": "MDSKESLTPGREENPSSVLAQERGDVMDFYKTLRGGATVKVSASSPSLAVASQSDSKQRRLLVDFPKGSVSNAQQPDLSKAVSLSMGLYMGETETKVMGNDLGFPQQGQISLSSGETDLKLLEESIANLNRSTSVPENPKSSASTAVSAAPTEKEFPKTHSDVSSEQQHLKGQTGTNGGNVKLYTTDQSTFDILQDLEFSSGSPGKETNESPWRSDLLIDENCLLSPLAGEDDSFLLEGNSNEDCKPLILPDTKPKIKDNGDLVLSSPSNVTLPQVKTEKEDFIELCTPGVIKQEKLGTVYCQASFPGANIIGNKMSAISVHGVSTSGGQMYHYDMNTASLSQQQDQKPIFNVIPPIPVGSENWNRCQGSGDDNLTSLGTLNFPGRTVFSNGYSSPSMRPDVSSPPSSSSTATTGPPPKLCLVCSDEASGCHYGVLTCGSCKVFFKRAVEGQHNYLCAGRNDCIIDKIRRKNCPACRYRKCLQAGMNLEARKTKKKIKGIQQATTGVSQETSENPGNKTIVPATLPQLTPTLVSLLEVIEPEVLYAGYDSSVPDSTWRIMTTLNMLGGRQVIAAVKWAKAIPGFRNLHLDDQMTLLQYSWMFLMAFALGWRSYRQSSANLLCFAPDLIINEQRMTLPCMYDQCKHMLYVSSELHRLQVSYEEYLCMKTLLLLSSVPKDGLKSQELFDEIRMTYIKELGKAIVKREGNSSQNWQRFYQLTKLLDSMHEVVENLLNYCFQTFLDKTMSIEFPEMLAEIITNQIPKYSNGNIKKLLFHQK", "experiment": "Glucocorticoid Receptor Competitive Binding Assay (fluorescence polarization, TAMRA-labeled dexamethasone probe)", "conditions": "qualitative statement; competition with TAMRA-labeled dexamethasone", "procedure": "Compounds of the invention were evaluated for binding to the steroid receptor by a fluorescence polarization competitive binding assay.\nA. Glucocorticoid Receptor Competitive Binding Assay\nStep 1. Characterization of the Fluorescent Probe\nThe wavelengths for maximum excitation and emission of the fluorescent probe should first be measured. An example of such a probe is rhodamine (TAMRA)-labeled dexamethasone.\nThe affinity of the probe for the steroid receptor was then determined in a titration experiment. The fluorescence polarization value of the probe in assay buffer was measured on an SLM-8100 fluorometer using the excitation and emission maximum values described above. Aliquots of expression vector lysate were added and fluorescence polarization was measured after each addition until no further change in polarization value was observed. Non-linear least squares regression analysis was used to calculate the dissociation constant of the probe from the polarization values obtained for lysate binding to the probe.\nStep 2. Screening for Inhibitors of Probe Binding\nThis assay uses fluorescence polarization (FP) to quantitate the ability of test compounds to compete with tetramethyl rhodamine (TAMRA)-labeled dexamethasone for binding to a human glucocorticoid receptor (GR) complex prepared from an insect expression system. The assay buffer was: 10 mM TES, 50 mM KCl, 20 mM Na2MoO4. 2H2O, 1.5 mM EDTA, 0.04% w/v CHAPS, 10% v/v glycerol, 1 mM dithiothreitol, pH 7.4. Test compounds were dissolved to 1 mM in neat DMSO and then further diluted to 10× assay concentration in assay buffer supplemented with 10% v/v DMSO. Test compounds were serially diluted at 10× assay concentrations in 10% DMSO-containing buffer in 96-well polypropylene plates. […] Positive controls were reaction mixtures containing no test compound; negative controls (blanks) were reaction mixtures containing 0.7 μM to 2 μM dexamethasone. […] IC50 values were determined by iterative non-linear curve fitting of the FP signal data to a 4-parameter logistic equation."}
{"smiles": "CC(C)(CC(O)(Cc1cc2ccccc2[nH]1)C(F)(F)F)c1cccc(O)c1", "note": "(centres unmarked) [3-[4,4,4-Trifluoro-3-hydroxy-3-(1H-indol-2-ylmethyl)-1,1-dimethylbutyl]phenol]", "activity in the GR binding assay": "potent activity"}
{"smiles": "CC(C)(CC(O)(Cc1cc2ccccc2[nH]1)C(F)(F)F)c1ccc2c(c1)CCO2", "note": "(centres unmarked) [4-(2,3-Dihydrobenzofuran-5-yl)-1,1,1-trifluoro-2-(1H-indol-2-ylmethyl)-4-methylpentan-2-ol]", "activity in the GR binding assay": "potent activity"}
{"smiles": "CC(C)(CC(O)(Cc1ccnc2ccccc12)C(F)(F)F)c1ccc2c(c1)CCO2", "note": "(centres unmarked) [4-(2,3-Dihydrobenzofuran-5-yl)-1,1,1-trifluoro-4-methyl-2-quinolin-4-ylmethylpentan-2-ol]", "activity in the GR binding assay": "potent activity"}
{"smiles": "CC(C)(CC(O)(Cc1cc2cccc(F)c2[nH]1)C(F)(F)F)c1cccc2c1OCC2", "note": "(centres unmarked) [4-(2,3-Dihydrobenzofuran-7-yl)-1,1,1-trifluoro-2-(7-fluoro-1H-indol-2-ylmethyl)4-methylpentan-2-ol]", "activity in the GR binding assay": "potent activity"}
{"smiles": "CC(C)(CC(O)(Cc1cc2ccccc2[nH]1)C(F)(F)F)c1cc(C#N)cc2c1OCC2", "note": "(centres unmarked) [4-(2,3-dihydro-5-cyanobenzofuran-7-yl)-1,1,1-trifluoro-2-(1H-indol-2-ylmethyl)-4-methylpentan-2-ol]", "activity in the GR binding assay": "potent activity"}
{"smiles": "Cc1cccc(C)c1C(C)(C)CC(O)(Cc1ccnc2ccccc12)C(F)(F)F", "note": "(centres unmarked) [4-(2,6-Dimethylphenyl)-1,1,1-trifluoro-4-methyl-2-quinolin-4-ylmethylpentan-2-ol]", "activity in the GR binding assay": "potent activity"}
{"smiles": "CCc1cccc(C(C)(C)CC(O)(Cc2ccnc3ccccc23)C(F)(F)F)c1OC", "note": "(centres unmarked) [4-(3-Ethyl-2-methoxyphenyl)-1,1,1-trifluoro-4-methyl-2-quinolin-4-ylmethylpentan-2-ol]", "activity in the GR binding assay": "potent activity"}
{"smiles": "COc1ccc(F)cc1C(C)(C)CC(O)(CF)Cc1cc2ccccc2[nH]1", "note": "(centres unmarked) [4-(5-Fluoro-2-methoxyphenyl)-2-fluoromethyl-1-(1H-indol-2-yl)-4-methylpentan-2-ol]", "activity in the GR binding assay": "potent activity"}
{"smiles": "CC(C)(CC(O)(Cc1ccnc2ccccc12)C(F)(F)F)c1cc(Br)cc2c1OCCC2", "note": "(centres unmarked) [4-(6-Bromochroman-8-yl)-1,1,1-trifluoro-4-methyl-2-quinolin-4-ylmethylpentan-2-ol]", "activity in the GR binding assay": "potent activity"}
{"smiles": "CC(C)(CC(O)(Cc1ccnc2ccccc12)C(F)(F)F)c1cccc2c1OCCC2", "note": "(centres unmarked) [4-Chroman-8-yl-1,1,1-trifluoro-4-methyl-2-quinolin-4-ylmethylpentan-2-ol]", "activity in the GR binding assay": "potent activity"}
{"smiles": "CC(C)(CC(O)(Cc1cc2cccc(F)c2[nH]1)C(F)(F)F)c1cc(F)ccc1O", "note": "(centres unmarked) [4-Fluoro-2-[4,4,4-trifluoro-3-(7-fluoro-1H-indol-2-ylmethyl)-3-hydroxy-1,1-dimethylbutyl]phenol]", "activity in the GR binding assay": "potent activity"}
{"smiles": "Cc1c(CC(O)(CC(C)(C)c2cc(F)ccc2O)C(F)(F)F)[nH]c2cnccc12", "note": "(centres unmarked) [4-Fluoro-2-[4,4,4-trifluoro-3-hydroxy-1,1-dimethyl-3-(3-methyl-1H-pyrrolo[2,3-c]pyridin-2-ylmethyl)butyl]phenol]", "activity in the GR binding assay": "potent activity"}
{"smiles": "CC(C)(CC(O)(Cc1cc2ccccc2[nH]1)C(F)(F)F)c1ccc(O)cc1", "note": "(centres unmarked) [4-[4,4,4-Trifluoro-3-hydroxy-3-(1H-indol-2-ylmethyl)-1,1-dimethylbutyl]phenol]", "activity in the GR binding assay": "potent activity"}
{"smiles": "COc1ccc(F)cc1C(C)(C)CC(O)(Cc1nc2ccccc2[nH]1)C(C)(C)C", "note": "(centres unmarked) [5-(5-Fluoro-2-methoxyphenyl)-3-(benzimidazol-2-ylmethyl)-2,2,5-trimethylhexan-3-ol]", "activity in the GR binding assay": "potent activity"}
{"smiles": "COc1ccc(F)cc1C(C)(C)CC(O)(Cc1cc2ccccc2[nH]1)C(C)C", "note": "(centres unmarked) [5-(5-Fluoro-2-methoxyphenyl)-3-(indol-2-ylmethyl)-2,5-dimethylhexan-3-ol]", "activity in the GR binding assay": "potent activity"}
{"smiles": "CCC(O)(Cc1cc2ccccc2[nH]1)CC(C)(C)c1cc(F)ccc1OC", "note": "(centres unmarked) [5-(5-Fluoro-2-methoxyphenyl)-3-(indol-2-ylmethyl)-5-methylhexan-3-ol]", "activity in the GR binding assay": "potent activity"}
{"smiles": "CC(C)(CC(O)(Cc1cc2cccc(F)c2[nH]1)C(F)(F)F)c1ccc(F)cc1O", "note": "(centres unmarked) [5-Fluoro-2-[4,4,4-trifluoro-3-(7-fluoro-1H-indol-2-ylmethyl)-3-hydroxy-1,1-dimethylbutyl]phenol]", "activity in the GR binding assay": "potent activity"}
{"smiles": "CC(C)(CC(O)(Cc1cc2cnccc2[nH]1)C(F)(F)F)c1ccc(F)cc1O", "note": "(centres unmarked) [5-Fluoro-2-[4,4,4-trifluoro-3-hydroxy-1,1-dimethyl-3-(1H-pyrrolo[3,2-c]pyridin-2-ylmethyl)butyl]phenol]", "activity in the GR binding assay": "potent activity"}
{"test_system": "glucocorticoid receptor", "experiment": "Glucocorticoid Receptor Cell Assays (agonist activity in one or more of the above assays)", "type": "cell-based", "conditions": "qualitative statement; assay not specified", "procedure": "B. Glucocorticoid Receptor Cell Assays\n1. Induction of Aromatase in Fibroblasts (Cell Assay for Transactivation)\nDexamethasone, a synthetic ligand to the glucocorticoid receptor (GR), induces expression of aromatase in human foreskin fibroblast cells. The activity of aromatase is measured by the conversion of testosterone to estradiol in culture media.\nOn the day of the experiment, the media in the wells is replaced with fresh media. Cells are treated with test compounds to final concentrations of 10^−5 M to 10^−8 M, and testosterone to a final concentration of 300 ng/mL. Each well has a total volume of 100 μL. Samples are made in duplicates. Control wells include: (a) wells that receive testosterone only, and (b) wells that receive testosterone plus 2 μM of dexamethasone to provide maximum induction of aromatase. Plates are incubated at 37° C. overnight (15 to 18 hours), and supernatants are harvested at the end of incubation. […] The amount of estradiol is inversely proportional to the ELISA signals in each well. The extent of aromatase induction by test compounds is expressed as a relative percentage to dexamethasone. EC50 values of test compounds are derived by non-linear curve fitting.\n2. Inhibition of IL-6 Production in Fibroblasts (Cell Assay for Transrepression)\nHuman foreskin fibroblast cells produce IL-6 in response to stimulation by pro-inflammatory cytokine IL-1.\nOn the next day, media in the wells is replaced with fresh media. Cells are treated with IL-1 (rhIL-1α, R&D Systems Cat. No. 200-LA) to a final concentration of 1 ng/mL, and with test compounds to final concentrations of 10^−5 M to 10^−8 M, in a total volume of 200 μL per well. Samples are done in duplicates. […] Positive control wells receive IL-1 only and represent maximum (or 100%) amount of IL-6 production. Plates are incubated at 37° C. overnight (15 to 18 hours), and supernatants are harvested at the end of incubation. IL-6 levels in the supernatants are determined by the ELISA kits for IL-6 (MedSystems Diagnostics GmbH, Vienna, Austria, Cat. No. BMS213TEN) according to manufacture's instructions. The extent of inhibition of IL-6 by test compounds is expressed in percentage relative to positive controls. IC50 values of test compounds are derived by non-linear curve fitting.\nEvaluation of agonist or antagonist activity of compounds binding to the glucocorticoid receptor may be determined by any of the assays.\n3. Modulation of Tyrosine Aminotransferase (TAT) Induction in Rat Hepatoma Cells\nTesting of compounds for agonist or antagonist activity in induction of tyrosine aminotransferase (TAT) in rat hepatoma cells.\nH4-II-E-C3 cells were incubated overnight in 96 well plates (20,000 cells/100 μL/well) in MEM medium containing 10% heat inactivated FBS and 1% nonessential amino acids. On the next day, cells were stimulated with the indicated concentrations of dexamethasone or test compound (dissolved in DMSO, final DMSO concentration 0.2%) for 18 hours. Control cells were treated with 0.2% DMSO. After 18 hours, the cells were lysed in a buffer containing 0.1% Triton X-100 and the TAT activity was measured in a photometric assay using tyrosine and alpha-ketoglutarate as substrates.\nFor measuring antagonist activity, the hepatoma cells were pre-stimulated by addition of dexamethasone (concentration ranges from 3×10^−9 M to 3×10^−8 M) shortly before the test compound was applied to the cells.\n4. Modulation of MMTV-Luc Induction in HeLa Cells\nTesting of compounds for agonist or antagonist activity in stimulation of MMTV-(mouse mammary tumor virus) promoter in HeLa cells.\nCells were cultured overnight in DMEM medium without phenol red, supplemented with 3% CCS (charcoal treated calf serum) and then transferred to 96 well plates (15,000 cells/100 μL/well)."}
{"smiles": "CC(C)(CC(O)(Cn1cc(C#N)c2ccccc21)C(F)(F)F)c1cccc2c1OCC2", "note": "(centres unmarked)", "activity as agonists of the glucocorticoid receptor function in one or more of the above assays": "potent agonists"}
{"smiles": "CC(C)(CC(O)(Cc1cc2cc(C#N)ccc2[nH]1)C(F)(F)F)c1cccc2c1OCC2", "note": "(centres unmarked)", "activity as agonists of the glucocorticoid receptor function in one or more of the above assays": "potent agonists"}
